Results as given in ChEMBL document CHEMBL1155335, “Studies towards topical selective beta2-adrenoceptor agonists with a long duration of action” (Bioorg Med Chem Lett, 2009).
Activity calls are given as the source filed them. The calls are words filed in the database; no cut-off is given here.

Columns and labels:
[1] = test system: Cavia porcellus; assay: Toxicity in guinea pig assessed as increase in heart rate at 3 ug/kg, intratracheally after 90 mins; format: organism-based; settings: in vivo, inhaled_or_intranasal, 0.003 mg/kg, 1.5 h
[2] = species on record: Homo sapiens; assay: Selectivity ratio, EC50 for human beta-1 adrenoceptor to EC50 for human beta2 adrenoceptor
[3] = test system: Cavia porcellus; assay: Bronchoprotective activity in intratracheally dosed guinea pig assessed as inhibition of acetylcholine-induced increase in pulmonary resistance after 5 hrs; format: functional, organism-based
[4] = test system: Cavia porcellus; assay: Toxicity in intratracheally dosed guinea pig assessed as increase in heart rate after 10 to 20 mins; format: organism-based; settings: in vivo, inhaled_or_intranasal
[5] = target: Beta-1 adrenergic receptor (Homo sapiens, UniProt P08588)
Description: Agonist activity at human beta-1 adrenoceptor expressed in CHOK1 cell assessed as increase of intracellular cAMP level

[6] = target: Beta-2 adrenergic receptor (Homo sapiens, UniProt P07550)
Description: Agonist activity at human beta2 adrenoceptor expressed in CHOK1 cell assessed as increase of intracellular cAMP level

[7] = test system: Cavia porcellus; assay: Bronchoprotective activity in guinea pig assessed as inhibition of acetylcholine-induced increase in pulmonary resistance at 10 ug/kg, intratracheally after 5 hrs; format: functional; design: scale not given: the % may be the effect or the level left
[8] = test system: Cavia porcellus; assay: Bronchoprotective activity in guinea pig assessed as inhibition of acetylcholine-induced increase in pulmonary resistance at 3 ug/kg, intratracheally after 5 hrs; format: functional, organism-based
[9] = test system: Cavia porcellus; assay: Toxicity in guinea pig assessed as increase in heart rate at 10 ug/kg, intratracheally after 90 mins; format: organism-based; settings: in vivo, inhaled_or_intranasal, 0.01 mg/kg, 1.5 h

Beta-2 adrenergic receptor, sequence (P07550 whole entry): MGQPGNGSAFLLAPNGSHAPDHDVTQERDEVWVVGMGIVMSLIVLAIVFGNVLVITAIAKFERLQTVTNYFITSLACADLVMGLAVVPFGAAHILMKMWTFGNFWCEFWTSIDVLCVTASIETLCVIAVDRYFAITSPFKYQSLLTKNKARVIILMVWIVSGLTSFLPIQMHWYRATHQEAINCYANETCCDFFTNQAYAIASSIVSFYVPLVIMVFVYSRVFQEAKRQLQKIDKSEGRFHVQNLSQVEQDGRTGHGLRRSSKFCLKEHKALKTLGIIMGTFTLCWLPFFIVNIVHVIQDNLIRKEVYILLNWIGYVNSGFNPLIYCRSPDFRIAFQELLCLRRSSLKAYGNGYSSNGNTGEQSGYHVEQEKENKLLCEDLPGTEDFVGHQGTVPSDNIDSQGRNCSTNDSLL
Beta-1 adrenergic receptor, sequence (P08588 whole entry): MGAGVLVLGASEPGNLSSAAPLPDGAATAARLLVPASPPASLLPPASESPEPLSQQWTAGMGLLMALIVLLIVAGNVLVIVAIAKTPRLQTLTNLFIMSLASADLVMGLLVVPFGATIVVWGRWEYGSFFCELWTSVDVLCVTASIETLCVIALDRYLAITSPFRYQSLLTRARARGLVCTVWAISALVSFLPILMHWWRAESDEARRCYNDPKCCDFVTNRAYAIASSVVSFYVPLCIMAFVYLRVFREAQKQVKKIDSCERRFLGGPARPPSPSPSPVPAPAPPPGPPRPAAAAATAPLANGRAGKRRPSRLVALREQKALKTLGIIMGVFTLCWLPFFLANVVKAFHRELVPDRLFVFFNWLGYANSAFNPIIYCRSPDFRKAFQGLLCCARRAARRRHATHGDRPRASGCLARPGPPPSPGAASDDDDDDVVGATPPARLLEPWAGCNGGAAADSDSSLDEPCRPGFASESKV

Row | Ratio EC50 [2] | EC50 [5] [nM] | EC50 [6] [nM] | SMILES | Activity [1] | Activity [3] | Activity [4] | Activity [7] [%] | Activity [8] | Activity [9] [%]
1 | 5.5 | 9.9 | 1.8 | CC(C)(Cc1ccc(NC(=O)CCCNCCCS(=O)(=O)O)cc1)NCC(O)c1ccc(O)c2c1OCC(=O)N2 (centres undefined) | Active | Dose-dependent effect | Toxic |  |  | 
2 | 3.1 | 3.4 | 1.1 | CC(C)(Cc1ccc(NC(=O)CCCN)cc1)NCC(O)c1ccc(O)c2c1OCC(=O)N2 (centres undefined) |  |  |  |  |  | 
3 | 1.2 | 11 | 9 | CC(C)(Cc1ccc(NC(=O)CCCN)cc1)NCC(O)c1cc(O)cc2c1OCC(=O)N2 (centres undefined) |  |  |  |  |  | 
4 | 10.6 | 5.3 | 0.5 | CN(C)CC(=O)NCCCC(=O)Nc1ccc(CC(C)(C)NCC(O)c2ccc(O)c3c2OCC(=O)N3)cc1 (centres undefined) |  |  |  |  |  | 
5 | 4.4 |  |  | CC(C)(Cc1ccc(NC(=O)CCCNC(=N)N)cc1)NCC(O)c1cc(O)cc2c1OCC(=O)N2 (centres undefined) |  |  |  |  |  | 

Continued, compound first:

Row | SMILES | Ratio EC50 [2] | EC50 [5] [nM] | EC50 [6] [nM] | Activity [1] | Activity [3] | Activity [4] | Activity [7] [%] | Activity [8] | Activity [9] [%]
6 | CC(C)(Cc1ccc(NC(=O)CCCNC(=N)N)cc1)NCC(O)c1ccc(O)c2c1OCC(=O)N2 (centres undefined) | 1.8 | 1.8 | 1 |  | Dose-dependent effect | Toxic | 100 | Active | > 10
7 | CC(C)(Cc1ccc(NC(=O)CCCNC(=O)CN)cc1)NCC(O)c1ccc(O)c2c1OCC(=O)N2 (centres undefined) | 3.8 | 4.5 | 1.2 |  | Dose-dependent effect | Toxic | 100 | Active | > 10
8 | CC(C)(Cc1ccc(NC(=O)CCCNC(=O)C[N+](C)(C)C)cc1)NCC(O)c1ccc(O)c2c1OCC(=O)N2 (centres undefined) | 3.5 | 3.5 | 1 |  |  |  |  |  | 
9 | CC(C)(Cc1ccc(NC(=O)CCCN=C(N)N)cc1)NCC(O)c1cc(O)cc2c1OCC(=O)N2 (centres undefined) |  | 18 | 4.1 |  |  |  |  |  | 
10 | CC(C)(Cc1ccc(NC(=O)CCCNC(=O)C[N+](C)(C)C)cc1)NCC(O)c1cc(O)cc2c1OCC(=O)N2 (centres undefined) | 2.4 | 28 | 11.6 |  |  |  |  |  | 
11 | CN1CCN(CC(=O)NCCCC(=O)Nc2ccc(CC(C)(C)NCC(O)c3ccc(O)c4c3OCC(=O)N4)cc2)CC1 (centres undefined) | 4.8 | 5.7 | 1.2 |  |  |  |  |  | 
12 | CC(C)(Cc1ccc(NC(=O)CCCNC(=O)CCN)cc1)NCC(O)c1ccc(O)c2c1OCC(=O)N2 (centres undefined) | 5.1 | 4.6 | 0.9 |  |  |  |  |  | 
13 | CC(C)(Cc1ccc(NC(=O)CCCNC(=O)C(N)CCCN)cc1)NCC(O)c1ccc(O)c2c1OCC(=O)N2 (centres undefined) | 4.4 | 24 | 5.4 |  | Dose-dependent effect | Toxic | 100 | Active | > 10
